Measured values from patent US20120189670A1, “PHARMACEUTICAL COMPOSITIONS AND FORMULATIONS INCLUDING INHIBITORS OF THE PLECKSTRIN HOMOLOGY DOMAIN AND METHODS FOR USING SAME” (priority 2009, published 2012).
Converted amounts (≈) assume the structure as drawn. Read-outs that look alike come from different tables or passages of the source.

Columns and labels:
[1] = target: AKT (phospho-Ser^473-AKT) in BxPC-3 (Homo sapiens, UniProt P31749); assay: Western blot phospho-Ser473-AKT in BxPC-3 cells; conditions: for inhibition at 10 µM: BXPC-3, read-out: % pAKT Inhibition At 10 μM
pancreatic cancer cells = assay: Cell viability assay (Table 3); conditions: for Cell viability (IC50): viability assay, cell line not given; for IC50: Homo sapiens, Pancreatic cancer cell, read-out: Cell viability (IC50)
[2] = target: AKT (phospho-Ser^473-AKT) in MiaPaCa-2 cells (Homo sapiens, UniProt P31749); assay: Western blot phospho-Ser473-AKT in MiaPaCa-2 cells; conditions: for pAKT inhibition (IC50): MiaPaCa-2 cells
[3] = system: BxPC-3 pancreatic cell lines; assay: MTT cell survival, BxPC-3; format: cell-based; conditions: Homo sapiens; BxPC-3, MTT
HT-29 lung cancer cells = assay: MTT cell survival in HT-29 cells (Table 2); format: cell-based; conditions: Homo sapiens
[4] = Cytotoxicity in HT-29 cells; format: cell-based, human; conditions: human
[5] = Metabolic stability, incubation with HT-29 cells; format: in vitro ADME; conditions: human
Description: Compound 6 was too insoluble to obtain data.

[6] = target: T1, AKT (phospho-Ser^473 AKT) in NIH3T3 cells (Mus musculus, UniProt P31750); assay: Inhibition of phospho-Ser473 AKT in NIH3T3 cells; format: cell-based
T1 construct: endogenous in cells; host or cells: NIH3T3
Protocol: […]. […] AKT activity was measured by Western blotting using anti-phosphoSer437 AKT antibody. Downstream targets of AKT were detected also by Western blotting using specific anti-phospho antibodies and anti-actin was used as a loading control.

Solubility (Table 11) = format: physicochemical

Sequence of AKT (phospho-Ser^473-AKT) in MiaPaCa-2 cells (P31749 whole entry): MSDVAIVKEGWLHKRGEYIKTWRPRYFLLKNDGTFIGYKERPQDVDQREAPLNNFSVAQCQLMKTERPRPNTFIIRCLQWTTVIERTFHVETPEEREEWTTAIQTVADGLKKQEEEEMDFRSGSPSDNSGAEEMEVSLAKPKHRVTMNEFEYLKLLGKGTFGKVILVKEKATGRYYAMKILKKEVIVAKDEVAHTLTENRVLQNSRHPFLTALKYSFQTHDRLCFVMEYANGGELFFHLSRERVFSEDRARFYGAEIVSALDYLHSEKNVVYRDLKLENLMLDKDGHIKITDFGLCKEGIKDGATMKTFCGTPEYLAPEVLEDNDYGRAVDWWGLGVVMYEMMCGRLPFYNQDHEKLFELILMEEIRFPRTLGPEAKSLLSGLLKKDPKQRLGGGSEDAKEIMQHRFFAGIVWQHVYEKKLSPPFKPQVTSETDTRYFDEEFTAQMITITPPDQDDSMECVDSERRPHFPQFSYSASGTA
Sequence of AKT (phospho-Ser^473-AKT) in BxPC-3 (P31749 whole entry): as above
T1 sequence (P31750 whole entry): as the sequence (P31749 whole entry) above, with S2N, A50S, T100A, K112R, E117T, K389T, G410N, H415D counted along it

Compound	inhibition at 10 µM [1]	Cell viability (IC50) (pancreatic cancer cells)	other results
CC(C)(C)c1nnc(NS(=O)(=O)c2ccc(N)cc2)s1 [Compound 113, 4-Amino-N-(5-tert-butyl-1,3,4-thiadiazol-2-yl)benzenesulfonamide]	13%		
Nc1ccc(S(=O)(=O)Nc2nnc(CC(=O)O)s2)cc1 [Compound 117, 2-(5-(4-Aminophenylsulfonamido)-1,3,4-thiadiazol-2-yl)acetic Acid]	23%		
COc1cccc(OC)c1C(=O)Nc1ccc(S(=O)(=O)Nc2ccccn2)cc1 [Compound 449]			pAKT inhibition (IC50) [2]: N/I; IC50 (pancreatic cancer cells): 190 µM
CCCCCCCCCCCCc1ccc(S(=O)(=O)Nc2nnc(CO)s2)cc1 [Compound 128, 4-Dodecyl-N-(5-(hydroxymethyl)-1,4-thiadiazol-2-yl)benzenesulfonamide]			IC50 [3]: 37 µM
CCCCCCCCCCCCc1ccc(S(=O)(=O)Nc2nnc(CC)s2)cc1 [Compound 112, 4-Dodecyl-N-(5-ethyl-1,3,4-thiadiazol-2-yl)benzenesulfonamide]			IC50 [3]: 32 µM
Cc1noc(C)c1S(=O)(=O)Nc1ccc(Oc2c(Cl)cccc2Cl)nc1 [Compound 448]			pAKT inhibition (IC50) [2]: N/I; IC50 (pancreatic cancer cells): 80 µM
Cc1nnc(NS(=O)(=O)c2ccc(N)cc2)s1 [Compound 105, 4-Amino-N-(5-methyl-1,3,4-thiadiazol-2-yl)benzenesulfonamide]	11%		
COc1cc(NS(=O)(=O)c2ccc(Nc3ccco3)cc2)nc(OC)n1 [Compound 454]			pAKT inhibition (IC50) [2]: N/I
CCc1nnc(NS(=O)(=O)c2ccc(NC(C)=O)cc2)s1 [Compound 110, N-(4-(N-(5-Ethyl-1,3,4-thiadizol-2-yl)sulfamoyl)phenyl)acetamide]	45%		
Cc1nnc(NS(=O)(=O)c2ccc(NS(=O)(=O)c3ccc4ccccc4c3)cc2)s1 [Compound 455]		did not exhibit cytotoxicity and N/I	
CC(=O)Nc1ccc(S(=O)(=O)Nc2nnc(C)s2)cc1 [Compound 106, N-(4-(N-(5-Methyl-1,3,4-thiadizol-2-yl)sulfamoyl)phenyl)acetamide]	< 10%		
CCCCCCCCCCCCc1ccc(S(=O)(=O)Nc2nnc(C)s2)cc1 [Compound 108, 4-Dodecyl-N-(5-methyl-1,3,4-thiadiazol-2-yl)benzenesulfonamide]	64%		IC50 [3]: 61 µM
NS(=O)(=O)c1nnc(NS(=O)(=O)c2cccc3cccnc23)s1 [Compound 345]			IC50 (HT-29 lung cancer cells): > 100 µM
CCCCCCCCCCCCc1ccc(S(=O)(=O)Nc2nnc(CC(=O)O)s2)cc1 [Compound 120, 2-(5-(4-Dodecylphenylsulfonamido)-1,3,4-thiadiazol-2-yl)acetic Acid]			IC50 [3]: > 100 µM
CCCCCCCCCCCCc1ccc(S(=O)(=O)Nc2nnc(C(=O)OCC)s2)cc1 [Compound 124E, Ethyl 5-(4-dodecylphenylsulfonamido)-1,3,4-thiadiazole-2-carboxylate]			IC50 [3]: 36 µM
CC(=O)Nc1ccc(S(=O)(=O)Nc2nnc(CC(=O)O)s2)cc1 [Compound 118, 2-(5-(4-Acetamidophenylsulfonamido)-1,3,4-thiadiazol-2-yl)acetic Acid]	19%		
CCc1nnc(NS(=O)(=O)c2ccc(N)cc2)s1 [Compound 109, 4-Amino-N-(5-ethyl-1,3,4-thiadiazol-2-yl)benzenesulfonamide]	16%		
CCCCCCCCCCCCc1ccc(S(=O)(=O)Nc2nnc(CCCCCN(C)c3ccc([N+](=O)[O-])c4nonc34)s2)cc1 [Compound 137, 4-Dodecyl-N-(5-(5-(methyl(7-nitrobenzo[c][1,2,5]oxadiazol-4-yl)amino)pentyl)-1,3,4-thiadiazol-2-yl)benzenesulfonamide]			AKT phosphorylation inhibition (qualitative) ([1]; BxPC-3 cells): inhibited AKT phosphorylation in a fashion similar to 104
CC(=O)Nc1ccc(S(=O)(=O)Nc2nnc(C(C)(C)C)s2)cc1 [Compound 114, N-(4-(N-(5-tert-Butyl-1,3,4-thiadiazol-2-yl)sulfamoyl)phenyl)acetamide]	20%		
COc1cc(NS(=O)(=O)c2ccc(NS(=O)(=O)c3c(C)noc3C)cc2)nc(OC)n1 [Compound 415]			IC50 (HT-29 lung cancer cells): 3.1 µM
CCCCCCCCCCCCc1ccc(S(=O)(=O)Nc2nnc(C(C)(C)C)s2)cc1 [Compound 116, N-(5-tert-Butyl-1,3,4-thiadiazol-2-yl)-4-dodecylbenzenesulfonamide]	36%		IC50 [3]: 45 µM
CCCCCCCCCCCCc1ccc(S(=O)(=O)Nc2nnc(CC(=O)OCC)s2)cc1 [Compound 120E, Ethyl 2-(5-(4-Dodecylphenylsulfonamido)-1,3,4-thiadiazol-2-yl)acetate]			IC50 [3]: 70 µM
CC1=NN(C(=O)c2ccccc2)C(=O)C1/N=N/c1ccc(S(=O)(=O)Nc2ncccn2)cc1 (centres unmarked) [Compound 331]			IC50 [4]: 14 µM; half-life ([5]; HT-29 cell culture conditions, read-out: half lives under cell culture conditions): 1 to 2 h; half-life ([5]; incubating with HT-29 cells at maximum DMEM concentration at 37° C., read-out: Metabolic half life): 1.03 h; IC50 [6]: 11 µM; solubility (Solubility (Table 11)): 28.3 µM (≈ 13.1 µg/mL)

Now from value to compound, other results behind:

inhibition at 10 µM [1]	Cell viability (IC50) (pancreatic cancer cells)	Compound	other results
	N/I	COc1cc(NS(=O)(=O)c2ccc(NC(=O)c3ccco3)cc2)nc(OC)n1 [Compound 445]	
	N/I	Cc1onc(-c2ccccc2)c1C(=O)Nc1ccc(S(=O)(=O)Nc2ncccn2)cc1 [Compound 453]	pAKT inhibition (IC50) [2]: N/I
	N/I	COc1cc(NS(=O)(=O)c2ccc(Nc3ccco3)cc2)nc(OC)n1 [Compound 444]	
	N/I	Cc1cc(C)nc(NS(=O)(=O)c2ccc(NC(=O)c3ccoc3C)cc2)n1 [Compound 446]	pAKT inhibition (IC50) [2]: N/I
	N/I	COc1cc(NS(=O)(=O)c2ccc(NC(=O)C(C)(C)C)cc2)nc(OC)n1 [Compound 452]	pAKT inhibition (IC50) [2]: N/I
18%		Nc1ccc(S(=O)(=O)Nc2nnc(S(N)(=O)=O)s2)cc1 [Compound 131, 5-(4-Aminophenylsulfonamido)-1,3,4-thiadiazole-2-sulfonamide]	
	N/I	CC(=O)Nc1ccc(NS(=O)(=O)c2c(C)noc2C)cc1 [Compound 451]	pAKT inhibition (IC50) [2]: N/I
	N/I	COc1cc(NS(=O)(=O)c2ccc(C(C)=O)cc2)nc(OC)n1 [Compound 450]	
55%		CCOC(=O)Cc1nnc(NS(=O)(=O)c2ccc(NC(C)=O)cc2)s1 [Compound 118E, Ethyl 2-(5-(4-Acetamidophenylsulfonamido)-1,3,4-thiadiazol-2-yl)acetate]	
	N/I	O=C(Nc1ccccc1)c1ccccc1NC(=O)c1ccccc1C(=O)O [Compound 439]	
	N/I	O=C(O)c1ccccc1C(=O)Nc1ccccc1N1CCOCC1 [Compound 438]	pAKT inhibition (IC50) [2]: N/I
	N/I	O=C(Nc1ccccc1SCCS(=O)(=O)c1ccc(Cl)cc1)c1ccccc1Cl [Compound 436]	pAKT inhibition (IC50) [2]: N/I
< 10%		CC(=O)Nc1ccc(S(=O)(=O)Nc2nnc(S(N)(=O)=O)s2)cc1 [Compound 138, N-(4-(N-(5-Sulfamoyl-1,3,4-thiadiazol-2-yl)sulfamoyl)phenyl)acetamide]	
< 10%		CCCCc1ccc(S(=O)(=O)Nc2nncs2)cc1 [Compound 155, 4-Butyl-N-(1,3,4-thiadiazol-2-yl)benzenesulfonamide]	
10%		CCCCCCCCc1ccc(S(=O)(=O)Nc2nncs2)cc1 [Compound 153, 4-Octyl-N-(1,3,4-thiadiazol-2-yl)benzenesulfonamide]	
< 10%		CCCCCCc1ccc(S(=O)(=O)Nc2nncs2)cc1 [Compound 154, 4-Hexyl-N-(1,3,4-thiadiazol-2-yl)benzenesulfonamide]	
10%		Nc1ccc(S(=O)(=O)Nc2nnc(CO)s2)cc1 [Compound 125, 4-Amino-N-(5-(hydroxymethyl)-1,3,4-thiadiazol-2-yl)benzenesulfonamide]	
< 10%		CCOC(=O)c1nnc(NS(=O)(=O)c2ccc(NC(C)=O)cc2)s1 [Compound 122E, Ethyl 5-(4-Acetamidophenylsulfonamido)-1,3,4-thiadiazole-2-carboxylate]	
	N/I	COc1ccc(NC(=O)c2ccccc2NC(=O)c2ccccc2C(=O)O)c(OC)c1 [Compound 442]	pAKT inhibition (IC50) [2]: N/I
< 10%		CC(=O)Nc1ccc(S(=O)(=O)Nc2nnc(CO)s2)cc1 [Compound 126, N-(4-(N-(5-(hydroxymethyl)-1,3,4-thiadiazol-2-yl)sulfamoyl)phenyl)acetamide]	
	N/I	Cc1cc(C)nc(NS(=O)(=O)c2ccc(NC(=O)c3ccoc3C)cc2)n1 [Compound 447]	pAKT inhibition (IC50) [2]: N/I
	N/I	CCOc1ccccc1C(=O)Nc1ccccc1C(=O)O [Compound 441]	IC50 [2]: 25 µM
	N/I	Nc1ccc(S(=O)(=O)Nc2ccc(S(=O)(=O)Nc3nnc(S(N)(=O)=O)s3)cc2)cc1 [Compound 456]	
	N/I	O=S(=O)(Nc1nccs1)c1ccc2ccccc2c1 [Compound 437]	pAKT inhibition (IC50) [2]: N/I
